Assay results reported in ChEMBL document CHEMBL1201862, “PubChem BioAssay data set” (2004).
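A five-concentration, 48-hour dose response in 96-well plates underlies each endpoint, interpolated linearly between surrounding concentrations. GI50 marks 50% less growth.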 Activity calls are given as the source filed them. Rule as the data show it: active = GI50 up to about 1.1 µM and inactive = higher.

What was measured:
Test in all cases: NCI anticancer screen, dose series, 48 h
Hs-578T = tested on: Hs-578T
EKVX = tested on: EKVX
HT-29 = tested on: HT-29
SK-MEL-5 = tested on: SK-MEL-5
OVCAR-8 = tested on: OVCAR-8
SNB-19 = tested on: SNB-19
SF-295 = tested on: SF-295
SR = tested on: SR
MOLT-4 = tested on: MOLT-4
RPMI-8226 = tested on: RPMI-8226
U-251 = tested on: U-251
SN12C = tested on: SN12C
UO-31 = tested on: UO-31
OVCAR-3 = tested on: OVCAR-3
MDA-N = tested on: MDA-N
K562 = tested on: K562
OVCAR-4 = tested on: OVCAR-4
BT-549 = tested on: BT-549
MCF7 = tested on: MCF7
HCC 2998 = tested on: HCC 2998

Measured: GI50

Cc1ccc(C(=O)/C=C2\Nc3ccccc3NC2=O)cc1
inactive: Hs-578T 2.21 µM | EKVX 2.96 µM | HT-29 20 µM | SK-MEL-5 10.4 µM | OVCAR-8 3.08 µM | SNB-19 10.6 µM | SF-295 4.17 µM | SR 15.5 µM | MOLT-4 > 100 µM | RPMI-8226 11.1 µM | U-251 8.13 µM | SN12C 5.58 µM | UO-31 4.38 µM | OVCAR-3 2.99 µM | MDA-N 32.6 µM | K562 > 100 µM | OVCAR-4 1.79 µM | BT-549 22.2 µM | MCF7 9.98 µM | HCC 2998 11.5 µM

N=C(N)c1ccc(/N=N\c2c(O)ccc3c2[nH]c2ccccc23)cc1
inactive: Hs-578T 63.8 µM | EKVX > 59.6 µM | HT-29 19.6 µM | SK-MEL-5 37.8 µM | OVCAR-8 2.46 µM | SNB-19 2.47 µM | SF-295 > 51.5 µM | SR 2.54 µM | MOLT-4 2.23 µM | RPMI-8226 2.19 µM | U-251 1.95 µM | SN12C 16.4 µM | UO-31 35.3 µM | OVCAR-3 2.1 µM | MDA-N 6.3 µM | K562 1.63 µM | OVCAR-4 6.14 µM | BT-549 49.8 µM | MCF7 1.75 µM | HCC 2998 1.76 µM

C=CCN(c1cc(OC)c2[nH]cc(C)c2c1[N+](=O)[O-])S(C)(=O)=O
inactive: Hs-578T > 100 µM | EKVX > 100 µM | SK-MEL-5 > 100 µM | OVCAR-8 > 100 µM | SNB-19 > 100 µM | SF-295 > 100 µM | SR > 100 µM | MOLT-4 > 100 µM | RPMI-8226 > 100 µM | U-251 > 100 µM | SN12C > 100 µM | UO-31 > 100 µM | OVCAR-3 > 100 µM | MDA-N > 100 µM | K562 > 100 µM | OVCAR-4 > 100 µM | BT-549 > 100 µM | MCF7 > 100 µM | HCC 2998 > 100 µM

Cc1cc(N2CCCC2)c([N+](=O)[O-])cc1[N+](=O)[O-]
inactive: Hs-578T 90.4 µM | EKVX > 100 µM | HT-29 > 100 µM | SK-MEL-5 > 100 µM | OVCAR-8 > 100 µM | SNB-19 > 100 µM | SF-295 > 100 µM | SR > 100 µM | MOLT-4 > 100 µM | RPMI-8226 > 100 µM | U-251 > 100 µM | SN12C > 100 µM | UO-31 > 100 µM | OVCAR-3 > 100 µM | MDA-N > 100 µM | K562 > 100 µM | OVCAR-4 > 100 µM | BT-549 > 100 µM | MCF7 > 100 µM | HCC 2998 > 100 µM

C/C(=N\Nc1nc2ccccc2o1)c1cccc[n+]1[O-]
inactive: Hs-578T > 100 µM | EKVX 11 µM | HT-29 5.13 µM | SK-MEL-5 23.9 µM | OVCAR-8 20 µM | SNB-19 64.7 µM | SR 6.19 µM | MOLT-4 1.5 µM | RPMI-8226 12 µM | U-251 8.26 µM | SN12C 18.6 µM | UO-31 4.45 µM | OVCAR-3 2.69 µM | MDA-N 60.7 µM | K562 7.23 µM | OVCAR-4 5.45 µM | BT-549 81.7 µM | MCF7 5.98 µM
active: SF-295 0.0877 µM | HCC 2998 0.0769 µM
